Results: patent US10995101B2, “2-oxo-thiazole derivatives as A2A inhibitors and compounds for use in the treatment of cancers” (iTeos Therapeutics SA, priority 2017, dated 2021)

Target: A2A receptor (Homo sapiens, UniProt P29274)
Assay: Inhibition of cAMP production in HEK cells
Format: cell-based
Conditions: HEK-293 cells with A2A receptor
Procedure: When the A2A receptor is activated, is induces the production of cAMP.
HEK-293 cells with a stable transfection of A2A receptor were bought from PerkinElmer® (# ES-011-C). […] Fresh media without the selection marker was added on the day immediately before the experiment to stop selection pressure.
Stimulation buffer b) mimics the human situation by increasing the amount of albumin present in the assay.
Compounds of the present invention were diluted 100× in either of the buffers depending on the assay performed. […] The total volume of the reaction was 20 μl (10 μl of cells, 5 μl of antagonist and 5 μl of agonist). The reaction was finalized by adding 10 μl of 4× EU-cAMP tracer working solution and 10 μl of 4× ULight-anti-cAMP working solution. The TR-FRET signal was measured after 1 hour using a Spectramax Paradigm (Molecular Devices).

[1] = IC50 (nM) (3 nM NECA as agonist, 0.1% BSA), 3 nM NECA as agonist, 0.1% BSA
[2] = IC50 (nM) (5 nM NECA as agonist, 2% HSA), 5 nM NECA as agonist, 2% HSA
[3] = IC50 (nM) (5 μM Adenosine as agonist, 2.0% HSA), 5 μM Adenosine as agonist, 2.0% HSA

Sequence of A2A receptor (P29274 whole entry): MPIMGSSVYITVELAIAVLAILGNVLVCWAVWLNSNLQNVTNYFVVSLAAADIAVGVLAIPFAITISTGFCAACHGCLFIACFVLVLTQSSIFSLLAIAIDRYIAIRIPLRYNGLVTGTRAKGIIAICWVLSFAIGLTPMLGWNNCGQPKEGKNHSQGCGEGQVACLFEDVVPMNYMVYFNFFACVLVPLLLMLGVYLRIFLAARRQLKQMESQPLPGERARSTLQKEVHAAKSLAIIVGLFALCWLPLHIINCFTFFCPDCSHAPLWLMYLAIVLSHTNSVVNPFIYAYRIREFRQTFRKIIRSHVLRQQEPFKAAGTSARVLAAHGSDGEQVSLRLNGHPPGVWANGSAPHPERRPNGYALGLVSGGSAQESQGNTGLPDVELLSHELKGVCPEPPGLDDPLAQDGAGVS

`C[C@@H](Oc1cc(N2CCN(CCn3c(=O)sc4c3nc(N)n3nc(-c5ccco5)nc43)CC2)c(F)cc1F)C(=O)O` (single isomer, unassigned) [Compound 61] gave an IC50 [1] of 0.9 nM, an IC50 [2] of 15 nM and an IC50 [3] of 810 nM.

In the case of `Nc1nc2c(sc(=O)n2CCN2CCN(c3cc(OC[C@@H](O)CO)c(F)cc3F)CC2)c2nc(-c3ccco3)nn12` [Compound 127, (S)-5-amino-3-(2-(4-(5-(2,3-dihydroxypropoxy)-2,4-difluorophenyl)piperazin-1-yl)ethyl)-8-(furan-2-yl)thiazolo[5,4-e][1,2,4]triazolo[1,5-c]pyrimidin-2(3H)-one], the IC50 [1] is reported as 0.5 nM and the IC50 [3] is reported as 35 nM.

Compound `Nc1nc2c(sc(=O)n2CCN2CCN(c3ccc(OCCN4CCOCC4)cc3)CC2)c2nc(-c3ccco3)nn12` [Compound 16, 5-amino-8-(furan-2-yl)-3-(2-(4-(4-(2-morpholinoethoxy)phenyl)piperazin-1-yl)ethyl)thiazolo[5,4-e][1,2,4]triazolo[1,5-c]pyrimidin-2(3H)-one] has an IC50 [1] of 3.2 nM and an IC50 [2] of 14 nM.

For `Nc1nc2c(sc(=O)n2CCN2CCN(c3cc(O[C@@H]4CNC[C@@H]4F)c(F)cc3F)CC2)c2nc(-c3ccco3)nn12` [Compound 93, 5-amino-3-(2-(4-(2,4-difluoro-5-(((3R,4S)-4-fluoropyrrolidin-3-yl)oxy)phenyl)piperazin-1-yl)ethyl)-8-(furan-2-yl)thiazolo[5,4-e][1,2,4]triazolo[1,5-c]pyrimidin-2(3H)-one], the IC50 [1] was 0.4 nM and the IC50 [3] was 33 nM.

`CNC(=O)c1ccc(N2CCN(CCn3c(=O)sc4c3nc(N)n3nc(-c5ccco5)nc43)CC2)cc1` [Compound 15, 4-(4-(2-(5-amino-8-(furan-2-yl)-2-oxothiazolo[5,4-e][1,2,4]triazolo[1,5-c]pyrimidin-3(2H)-yl)ethyl)piperazin-1-yl)-N-methylbenzamide] was tested, and the IC50 [1] was 2.6 nM.

`CN(C)CCOc1ccc(N2CCN(CCn3c(=O)sc4c3nc(N)n3nc(-c5ccco5)nc43)CC2)cc1` [Compound 17, 5-amino-3-(2-(4-(4-(2-(dimethylamino)ethoxy)phenyl)piperazin-1-yl)ethyl)-8-(furan-2-yl)thiazolo[5,4-e][1,2,4]triazolo[1,5-c]pyrimidin-2(3H)-one] was tested, and the IC50 [1] was 1 nM.

With `C[C@H](Oc1ccc(N2CCN(CCn3c(=O)sc4c3nc(N)n3nc(-c5ccco5)nc43)CC2)c(F)c1)C(=O)O` (single isomer, unassigned) [Compound 38] the IC50 [1] was 0.3 nM, the IC50 [2] was 9 nM and the IC50 [3] was 552 nM.

Compound `Nc1nc2c(sc(=O)n2CCN2CCN(c3ccc(OCC(=O)NCCN4CCOCC4)cc3F)CC2)c2nc(-c3ccco3)nn12` [Compound 105, 2-(4-(4-(2-(5-amino-8-(furan-2-yl)-2-oxothiazolo[5,4-e][1,2,4]triazolo[1,5-c]pyrimidin-3(2H)-yl)ethyl)piperazin-1-yl)-3-fluorophenoxy)-N-(2-morpholinoethyl)acetamide] has an IC50 [1] of 0.7 nM and an IC50 [3] of 95 nM.

`Nc1nc2c(sc(=O)n2CCN2CCN(c3ccc(F)c(OCC(=O)O)c3F)CC2)c2nc(-c3ccco3)nn12` [Compound 42, 2-(3-(4-(2-(5-amino-8-(furan-2-yl)-2-oxothiazolo[5,4-e][1,2,4]triazolo[1,5-c]pyrimidin-3(2H)-yl)ethyl)piperazin-1-yl)-2,6-difluorophenoxy)acetic acid] gave an IC50 [1] of 0.4 nM, an IC50 [2] of 19 nM and an IC50 [3] of 332 nM.

For `C[S+]([O-])c1ccc(N2CCN(CCn3c(=O)sc4c3nc(N)n3nc(-c5ccco5)nc43)CC2)cc1` (stereo not shown) [Compound 21, 5-amino-8-(furan-2-yl)-3-(2-(4-(4-(methylsulfinyl)phenyl)piperazin-1-yl)ethyl)thiazolo[5,4-e][1,2,4]triazolo[1,5-c]pyrimidin-2(3H)-one], the IC50 [1] was 1.6 nM, the IC50 [2] was 52 nM and the IC50 [3] was 1310 nM.

With `Nc1nc2c(sc(=O)n2CCN2CCN(c3ccc(S(N)(=O)=O)cc3)CC2)c2nc(-c3ccco3)nn12` [Compound 18, 4-(4-(2-(5-amino-8-(furan-2-yl)-2-oxothiazolo[5,4-e][1,2,4]triazolo[1,5-c]pyrimidin-3(2H)-yl)ethyl)piperazin-1-yl)benzenesulfonamide] the IC50 [1] was 1.7 nM, the IC50 [2] was 85 nM and the IC50 [3] was 2170 nM.
